Source: BindingDB's records for doi:10.1016/j.ejmech.2009.09.025 (2010)

The compounds below were run against Glutamate receptor ionotropic, kainate 2 (GluK2/GRIK2) (Homo sapiens) (UniProt Q13002) (assay: Antagonist activity at human recombinant GluR6 expressed in HEK cells coexpressing aequorine assessed as inhibition of glutamate-induced Ca2+ influx at 10 uM by luminescence reporter assay).
Sequence of Glutamate receptor ionotropic, kainate 2 (GluK2/GRIK2) (Homo sapiens) (Q13002 whole entry, looked up): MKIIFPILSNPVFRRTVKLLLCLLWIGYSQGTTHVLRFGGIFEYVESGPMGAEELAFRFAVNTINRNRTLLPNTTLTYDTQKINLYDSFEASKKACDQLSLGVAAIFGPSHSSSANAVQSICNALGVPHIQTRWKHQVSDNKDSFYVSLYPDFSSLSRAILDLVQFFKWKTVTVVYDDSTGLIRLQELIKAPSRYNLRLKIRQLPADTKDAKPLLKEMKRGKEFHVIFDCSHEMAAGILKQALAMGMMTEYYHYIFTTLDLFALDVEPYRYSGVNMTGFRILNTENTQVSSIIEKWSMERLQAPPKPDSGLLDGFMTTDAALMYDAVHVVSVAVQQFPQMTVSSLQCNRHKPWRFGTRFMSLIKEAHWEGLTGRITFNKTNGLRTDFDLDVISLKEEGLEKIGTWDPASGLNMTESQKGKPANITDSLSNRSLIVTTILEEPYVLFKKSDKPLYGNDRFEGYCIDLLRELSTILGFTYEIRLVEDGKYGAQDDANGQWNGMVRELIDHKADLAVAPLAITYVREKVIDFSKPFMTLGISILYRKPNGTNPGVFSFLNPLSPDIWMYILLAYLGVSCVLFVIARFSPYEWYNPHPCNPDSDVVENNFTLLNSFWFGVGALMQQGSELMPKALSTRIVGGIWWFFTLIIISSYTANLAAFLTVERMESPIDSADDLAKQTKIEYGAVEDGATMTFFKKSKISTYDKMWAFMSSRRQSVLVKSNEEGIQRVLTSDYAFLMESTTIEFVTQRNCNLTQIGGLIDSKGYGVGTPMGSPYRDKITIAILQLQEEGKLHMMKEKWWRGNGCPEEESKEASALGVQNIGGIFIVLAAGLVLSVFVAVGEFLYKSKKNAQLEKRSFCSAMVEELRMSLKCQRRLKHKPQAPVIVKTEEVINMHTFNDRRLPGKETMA

Point of comparison: CCOC(=O)c1c(Cl)sc(-c2ccccc2)c1C [Ethyl 2-chloro-4-methyl-5-phenylthiophene-3-carboxylate], IC50 10 µM. Against it:
- CCOC(=O)c1c(N)sc(-c2ccc(OC)cc2)c1C [Ethyl 2-amino-5-(4-methoxyphenyl)-4-methylthiophene-3-carboxylate] — within 1.5-fold, 8.6 µM
- CCCOC(=O)c1c(N)sc(-c2ccccc2)c1C [Propyl 2-amino-4-methyl-5-phenylthiophene-3-carboxylate] — 4.2-fold lower, 2.4 µM
- CCOC(=O)c1c(N)sc(-c2ccc(F)cc2)c1C [Ethyl 2-amino-5-(4-fluorophenyl)-4-methylthiophene-3-carboxylate] — within 1.5-fold, 12 µM
- COC(=O)c1c(N)sc(-c2ccccc2)c1C [Methyl 2-amino-4-methyl-5-phenylthiophene-3-carboxylate] — 2.4-fold lower, 4.1 µM
- Clc1ccc(CO[C@@H](Cn2ccnc2)c2ccc(Cl)cc2Cl)c(Cl)c1 [Brentan] — 1.5-fold lower, 6.5 µM
- CCOC(=O)c1c(N=NC#N)sc(-c2ccccc2)c1C [Ethyl 2-(cyanodiazenyl)-4-methyl-5-phenylthiophene-3-carboxylate] — 2.1-fold higher, 21 µM
- N#Cc1cc2c(cc1[N+](=O)[O-])=NC(=O)C(=O)N=2 [7-nitro-2,3-dioxo-2,3-dihydroquinoxaline-6-carbonitrile] — 2.3-fold higher, 23 µM
- C[C@H](C[C@H](N)C(=O)O)C(=O)O [2-Amino-4-methyl-pentanedioic acid] — 2.5-fold lower, 4 µM
- CCOC(=O)c1c(N)sc(-c2ccccc2)c1-c1ccccc1 [Ethyl 2-amino-4,5-diphenylthiophene-3-carboxylate] — 2.2-fold lower, 4.5 µM
- CCOC(=O)c1c(N)sc(-c2ccccc2Cl)c1C [Ethyl 2-amino-5-(2-chlorophenyl)-4-methylthiophene-3-carboxylate] — 1.8-fold lower, 5.7 µM
- CCOC(=O)c1c(N=C=S)sc(-c2ccccc2)c1C [2-isothiocyanato-4-methyl-5-phenylthiophene-3-carboxylate] — 2.9-fold lower, 3.5 µM
- Cc1c(-c2ccccc2)sc(N)c1C(=O)c1ccccc1 [(2-Amino-4-methyl-5-phenylthiophen-3-yl)(phenyl)methanone] — within 1.5-fold, 10.6 µM
- CCOC(=O)c1c(N=NN2CCOCC2)sc(-c2ccccc2)c1C [Ethyl 4-methyl-2-(morpholinodiazenyl)-5-phenylthiophene-3-carboxylate] — 5.4-fold higher, 54 µM
- Cc1c(-c2ccccc2)sc(N)c1C(=O)OC(C)(C)C [Tert-Butyl 2-amino-4-methyl-5-phenylthiophene-3-carboxylate] — 2.8-fold lower, 3.6 µM
- Cc1c(-c2ccccc2)sc(N)c1C#N [2-Amino-4-methyl-5-phenylthiophene-3-carbonitrile] — 7.1-fold higher, 71 µM
- CCOC(=O)c1c(N)sc(-c2ccccc2)c1C [Ethyl 2-amino-4-methyl-5-phenylthiophene-3-carboxylate] — 13-fold lower, 0.75 µM
- CCOC(=O)c1c(N=NN(C)C)sc(-c2ccccc2)c1C [Ethyl 2-(3,3-dimethyltriaz-1-enyl)-4-methyl-5-phenylthiophene-3-carboxylate] — 3.8-fold higher, 38 µM

Each compound was assayed against Glutamate receptor ionotropic, kainate 1 (GluK1/GRIK1) (Homo sapiens) (UniProt P39086) (assay: Antagonist activity at human recombinant GluR5 expressed in HEK cells coexpressing aequorine assessed as inhibition of glutamate-induced Ca2+ influx by luminescence reporter assay).
Sequence of Glutamate receptor ionotropic, kainate 1 (GluK1/GRIK1) (Homo sapiens) (P39086 whole entry, looked up): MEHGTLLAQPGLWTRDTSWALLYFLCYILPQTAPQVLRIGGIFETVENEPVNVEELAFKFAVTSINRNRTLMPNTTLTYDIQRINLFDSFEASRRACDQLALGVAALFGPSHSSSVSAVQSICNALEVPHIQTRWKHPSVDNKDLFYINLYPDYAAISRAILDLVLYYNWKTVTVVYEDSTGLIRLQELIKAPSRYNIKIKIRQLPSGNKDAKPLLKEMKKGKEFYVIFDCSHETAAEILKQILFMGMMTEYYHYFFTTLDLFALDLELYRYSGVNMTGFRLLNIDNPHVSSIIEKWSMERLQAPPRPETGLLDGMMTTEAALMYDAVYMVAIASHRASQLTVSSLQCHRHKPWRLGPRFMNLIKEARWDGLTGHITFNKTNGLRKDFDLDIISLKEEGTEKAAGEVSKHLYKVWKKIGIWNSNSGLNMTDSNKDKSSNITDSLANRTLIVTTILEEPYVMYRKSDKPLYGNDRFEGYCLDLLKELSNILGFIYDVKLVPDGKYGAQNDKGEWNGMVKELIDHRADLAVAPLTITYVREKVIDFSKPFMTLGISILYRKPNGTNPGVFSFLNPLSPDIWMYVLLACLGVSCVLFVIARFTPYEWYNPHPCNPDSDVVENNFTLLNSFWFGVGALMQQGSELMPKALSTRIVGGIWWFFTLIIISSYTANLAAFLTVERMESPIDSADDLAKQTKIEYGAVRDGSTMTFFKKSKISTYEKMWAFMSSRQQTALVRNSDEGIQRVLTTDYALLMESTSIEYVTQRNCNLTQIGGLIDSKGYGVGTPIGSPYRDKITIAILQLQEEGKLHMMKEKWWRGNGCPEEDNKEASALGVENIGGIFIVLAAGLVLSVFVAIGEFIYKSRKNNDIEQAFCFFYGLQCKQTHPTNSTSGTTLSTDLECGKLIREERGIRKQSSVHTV

With COC(=O)c1c(N)sc(-c2ccccc2)c1C [Methyl 2-amino-4-methyl-5-phenylthiophene-3-carboxylate] the IC50 was 30 µM.
